Each block holds one molecule with its values, some of them ahead of it.
Experiments:
Assay in all cases: KINOMEscan competition binding
Settings in all cases: compound 10.0 µM
[1] = system: ABL1 (human), P00519 [M351T]
[2] = system: ABL1 (human), P00519 [T315I]
ACVRL1 (human) = ACVRL1 (human) (UniProt P37023)
ALK (human) = ALK (human) (UniProt Q9UM73)
ANKK1 (human) = ANKK1 (human) (UniProt Q8NFD2)
CAMK1G (human) = CAMK1G (human) (UniProt Q96NX5)
CAMK2A (human) = CAMK2A (human) (UniProt Q9UQM7)
CDK15 (human) = CDK15 (human) (UniProt Q96Q40)
CDK17 (human) = CDK17 (human) (UniProt Q00537)
CDK2 (human) = CDK2 (human) (UniProt P24941)
CDKL2 (human) = CDKL2 (human) (UniProt Q92772)
CSNK1A1L (human) = CSNK1A1L (human) (UniProt Q8N752)
EPHA8 (human) = EPHA8 (human) (UniProt P29322)
Sequence of EPHA8 (human) (P29322 whole entry, looked up): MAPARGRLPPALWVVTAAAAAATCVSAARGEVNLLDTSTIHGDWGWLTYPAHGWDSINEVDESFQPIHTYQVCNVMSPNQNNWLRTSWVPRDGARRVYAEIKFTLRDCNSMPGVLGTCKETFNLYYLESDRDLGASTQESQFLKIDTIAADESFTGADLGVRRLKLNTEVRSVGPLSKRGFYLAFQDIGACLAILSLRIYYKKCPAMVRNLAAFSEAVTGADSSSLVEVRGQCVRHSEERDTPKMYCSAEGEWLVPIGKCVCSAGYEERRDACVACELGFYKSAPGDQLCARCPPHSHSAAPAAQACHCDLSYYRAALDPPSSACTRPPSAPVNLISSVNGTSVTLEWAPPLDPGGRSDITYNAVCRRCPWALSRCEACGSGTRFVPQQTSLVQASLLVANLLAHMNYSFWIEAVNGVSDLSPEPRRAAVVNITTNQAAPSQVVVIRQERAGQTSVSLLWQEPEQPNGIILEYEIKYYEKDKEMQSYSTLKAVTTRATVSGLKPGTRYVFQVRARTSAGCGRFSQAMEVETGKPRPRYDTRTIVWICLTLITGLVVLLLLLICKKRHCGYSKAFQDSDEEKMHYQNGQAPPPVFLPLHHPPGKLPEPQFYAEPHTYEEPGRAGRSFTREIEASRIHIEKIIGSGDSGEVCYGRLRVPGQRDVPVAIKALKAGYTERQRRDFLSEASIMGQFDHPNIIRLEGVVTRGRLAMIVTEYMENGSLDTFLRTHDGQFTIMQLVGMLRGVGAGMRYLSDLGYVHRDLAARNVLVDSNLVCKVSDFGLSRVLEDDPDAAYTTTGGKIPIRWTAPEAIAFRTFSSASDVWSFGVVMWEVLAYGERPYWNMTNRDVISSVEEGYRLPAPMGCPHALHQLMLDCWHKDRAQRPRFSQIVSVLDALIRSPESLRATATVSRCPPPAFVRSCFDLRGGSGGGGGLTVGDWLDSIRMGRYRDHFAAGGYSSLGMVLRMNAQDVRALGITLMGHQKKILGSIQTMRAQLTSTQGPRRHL

ERBB2 (human) = ERBB2 (human) (UniProt P04626)
FES (human) = FES (human) (UniProt P07332)
Sequence of FES (human) (P07332 whole entry, looked up): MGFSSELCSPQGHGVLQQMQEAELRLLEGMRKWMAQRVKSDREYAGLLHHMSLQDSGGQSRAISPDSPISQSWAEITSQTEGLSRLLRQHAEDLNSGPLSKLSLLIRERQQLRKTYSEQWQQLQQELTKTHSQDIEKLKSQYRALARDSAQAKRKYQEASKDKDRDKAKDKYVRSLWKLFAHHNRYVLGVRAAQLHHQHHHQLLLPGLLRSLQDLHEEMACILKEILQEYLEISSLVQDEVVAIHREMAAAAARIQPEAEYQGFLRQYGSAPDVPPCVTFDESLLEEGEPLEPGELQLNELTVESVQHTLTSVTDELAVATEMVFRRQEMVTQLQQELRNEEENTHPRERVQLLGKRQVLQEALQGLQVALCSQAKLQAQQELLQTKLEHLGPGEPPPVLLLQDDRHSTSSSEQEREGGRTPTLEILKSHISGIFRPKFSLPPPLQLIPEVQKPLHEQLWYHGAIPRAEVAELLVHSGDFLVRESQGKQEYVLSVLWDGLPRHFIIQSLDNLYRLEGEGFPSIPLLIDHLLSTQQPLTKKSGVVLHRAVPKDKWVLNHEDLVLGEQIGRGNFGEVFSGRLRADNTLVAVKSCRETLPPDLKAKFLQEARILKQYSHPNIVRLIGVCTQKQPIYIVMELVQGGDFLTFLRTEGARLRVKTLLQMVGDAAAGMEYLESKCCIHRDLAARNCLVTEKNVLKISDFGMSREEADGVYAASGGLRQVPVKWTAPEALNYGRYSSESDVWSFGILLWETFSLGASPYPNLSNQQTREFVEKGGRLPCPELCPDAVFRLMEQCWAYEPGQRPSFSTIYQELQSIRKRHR

[3] = system: FGFR3 (human), P22607 [G697C]
FLT4 (human) = FLT4 (human) (UniProt P35916)
Sequence of FLT4 (human) (P35916 whole entry, looked up): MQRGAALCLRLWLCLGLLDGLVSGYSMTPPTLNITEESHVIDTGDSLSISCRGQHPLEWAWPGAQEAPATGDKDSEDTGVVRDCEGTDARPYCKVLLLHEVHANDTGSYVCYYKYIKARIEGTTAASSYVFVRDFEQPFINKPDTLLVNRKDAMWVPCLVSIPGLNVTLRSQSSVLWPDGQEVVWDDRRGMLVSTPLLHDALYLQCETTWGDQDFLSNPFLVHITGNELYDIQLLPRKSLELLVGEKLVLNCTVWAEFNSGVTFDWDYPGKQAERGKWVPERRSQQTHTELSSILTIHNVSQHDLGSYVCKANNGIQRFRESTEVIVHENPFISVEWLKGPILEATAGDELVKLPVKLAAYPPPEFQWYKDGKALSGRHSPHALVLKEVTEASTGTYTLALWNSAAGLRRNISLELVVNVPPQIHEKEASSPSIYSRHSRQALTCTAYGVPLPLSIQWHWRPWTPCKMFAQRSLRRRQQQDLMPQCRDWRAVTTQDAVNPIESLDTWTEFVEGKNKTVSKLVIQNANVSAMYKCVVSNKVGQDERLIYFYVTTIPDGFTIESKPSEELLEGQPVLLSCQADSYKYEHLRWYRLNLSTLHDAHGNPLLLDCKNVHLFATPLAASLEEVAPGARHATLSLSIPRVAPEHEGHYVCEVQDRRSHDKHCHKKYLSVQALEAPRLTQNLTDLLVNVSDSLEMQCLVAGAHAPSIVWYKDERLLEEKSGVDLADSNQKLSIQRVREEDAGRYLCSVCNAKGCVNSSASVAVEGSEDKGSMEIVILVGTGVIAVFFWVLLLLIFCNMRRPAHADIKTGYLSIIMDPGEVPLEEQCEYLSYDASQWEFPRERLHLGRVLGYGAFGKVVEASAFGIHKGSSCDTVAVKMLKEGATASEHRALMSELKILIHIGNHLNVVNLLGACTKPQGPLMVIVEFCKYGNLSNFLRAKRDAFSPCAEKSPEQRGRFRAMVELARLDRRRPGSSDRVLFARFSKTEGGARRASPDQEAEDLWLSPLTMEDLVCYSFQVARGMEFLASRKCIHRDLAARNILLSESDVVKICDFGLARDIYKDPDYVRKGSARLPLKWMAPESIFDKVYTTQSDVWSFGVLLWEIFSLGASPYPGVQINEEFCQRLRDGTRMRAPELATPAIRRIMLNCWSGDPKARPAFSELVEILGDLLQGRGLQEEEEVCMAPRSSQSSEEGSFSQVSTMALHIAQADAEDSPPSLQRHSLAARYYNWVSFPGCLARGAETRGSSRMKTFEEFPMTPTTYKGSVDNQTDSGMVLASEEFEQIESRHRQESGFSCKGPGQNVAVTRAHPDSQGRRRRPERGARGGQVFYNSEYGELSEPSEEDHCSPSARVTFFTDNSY

HCK (human) = HCK (human) (UniProt P08631)
IGF1R (human) = IGF1R (human) (UniProt P08069)
IKBKE (human) = IKBKE (human) (UniProt Q14164)
Sequence of IKBKE (human) (Q14164 whole entry, looked up): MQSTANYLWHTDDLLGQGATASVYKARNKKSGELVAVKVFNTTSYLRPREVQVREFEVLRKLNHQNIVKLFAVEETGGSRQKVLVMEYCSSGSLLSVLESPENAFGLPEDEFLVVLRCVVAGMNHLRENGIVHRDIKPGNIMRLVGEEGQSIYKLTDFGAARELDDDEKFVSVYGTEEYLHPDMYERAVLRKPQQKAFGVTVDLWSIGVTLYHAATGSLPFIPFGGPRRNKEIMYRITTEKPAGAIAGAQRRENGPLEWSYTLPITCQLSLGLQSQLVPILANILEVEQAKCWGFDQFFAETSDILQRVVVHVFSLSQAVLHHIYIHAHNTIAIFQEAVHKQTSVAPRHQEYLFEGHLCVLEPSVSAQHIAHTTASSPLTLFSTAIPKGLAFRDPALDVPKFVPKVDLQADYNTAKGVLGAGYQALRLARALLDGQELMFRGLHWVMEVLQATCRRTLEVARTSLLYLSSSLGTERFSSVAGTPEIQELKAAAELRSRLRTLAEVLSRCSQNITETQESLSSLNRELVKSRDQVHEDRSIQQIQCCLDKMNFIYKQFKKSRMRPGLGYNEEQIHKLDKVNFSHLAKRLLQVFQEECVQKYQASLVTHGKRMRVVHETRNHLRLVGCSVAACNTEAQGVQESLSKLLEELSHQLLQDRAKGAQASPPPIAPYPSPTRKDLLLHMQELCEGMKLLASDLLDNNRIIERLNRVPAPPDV

INSRR (human) = INSRR (human) (UniProt P14616)
LTK (human) = LTK (human) (UniProt P29376)
MET (human) = MET (human) (UniProt P08581)
MST4 (human) = MST4 (human) (UniProt Q9P289)
MUSK (human) = MUSK (human) (UniProt O15146)
MYO3A (human) = MYO3A (human) (UniProt Q8NEV4)
NEK9 (human) = NEK9 (human) (UniProt Q8TD19)
NLK (human) = NLK (human) (UniProt Q9UBE8)
NUAK1 (human) = NUAK1 (human) (UniProt O60285)
PAK2 (human) = PAK2 (human) (UniProt Q13177)
PDPK1 (human) = PDPK1 (human) (UniProt O15530)
Sequence of PDPK1 (human) (O15530 whole entry, looked up): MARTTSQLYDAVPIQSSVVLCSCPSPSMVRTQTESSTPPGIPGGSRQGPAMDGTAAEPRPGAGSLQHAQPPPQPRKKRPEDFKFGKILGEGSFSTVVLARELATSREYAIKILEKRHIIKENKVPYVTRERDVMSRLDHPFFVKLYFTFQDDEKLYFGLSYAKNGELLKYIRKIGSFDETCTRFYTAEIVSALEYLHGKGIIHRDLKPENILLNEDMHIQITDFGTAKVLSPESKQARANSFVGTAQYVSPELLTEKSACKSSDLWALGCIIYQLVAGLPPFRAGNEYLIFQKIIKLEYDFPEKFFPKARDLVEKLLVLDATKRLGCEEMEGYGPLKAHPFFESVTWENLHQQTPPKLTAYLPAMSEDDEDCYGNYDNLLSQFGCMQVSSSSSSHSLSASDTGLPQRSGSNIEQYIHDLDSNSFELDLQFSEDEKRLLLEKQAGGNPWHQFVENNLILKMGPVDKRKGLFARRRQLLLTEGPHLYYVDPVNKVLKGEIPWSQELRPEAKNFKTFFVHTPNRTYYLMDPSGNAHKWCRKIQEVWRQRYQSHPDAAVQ

PTK2 (human) = PTK2 (human) (UniProt Q05397)
ROCK2 (human) = ROCK2 (human) (UniProt O75116)
ROS1 (human) = ROS1 (human) (UniProt P08922)
RPS6KA1 KD1 (human) = RPS6KA1 KD1 (human) (UniProt Q15418)
SGK110 (human) = SGK110 (human) (UniProt P0C264)
SIK1 (human) = SIK1 (human) (UniProt P57059)
SRPK1 (human) = SRPK1 (human) (UniProt Q96SB4)
STK36 (human) = STK36 (human) (UniProt Q9NRP7)
SYK (human) = SYK (human) (UniProt P43405)
TEC (human) = TEC (human) (UniProt P42680)
Sequence of TEC (human) (P42680 whole entry, looked up): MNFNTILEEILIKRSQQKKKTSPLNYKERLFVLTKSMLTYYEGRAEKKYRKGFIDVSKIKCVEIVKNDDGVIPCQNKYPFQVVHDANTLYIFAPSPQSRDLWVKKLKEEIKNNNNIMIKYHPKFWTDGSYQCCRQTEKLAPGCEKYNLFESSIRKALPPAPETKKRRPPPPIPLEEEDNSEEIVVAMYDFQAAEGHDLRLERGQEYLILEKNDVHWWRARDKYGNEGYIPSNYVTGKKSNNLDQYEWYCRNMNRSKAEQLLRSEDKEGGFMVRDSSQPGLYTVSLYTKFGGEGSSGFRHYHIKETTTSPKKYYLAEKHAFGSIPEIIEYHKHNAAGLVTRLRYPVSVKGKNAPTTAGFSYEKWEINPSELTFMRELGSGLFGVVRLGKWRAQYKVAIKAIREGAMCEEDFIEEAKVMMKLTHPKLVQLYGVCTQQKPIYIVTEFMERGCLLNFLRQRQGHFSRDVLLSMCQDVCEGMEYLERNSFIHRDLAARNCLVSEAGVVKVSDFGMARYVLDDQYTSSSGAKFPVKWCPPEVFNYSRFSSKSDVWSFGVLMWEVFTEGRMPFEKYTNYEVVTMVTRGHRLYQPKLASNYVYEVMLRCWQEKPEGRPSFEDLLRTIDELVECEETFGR

TLK2 (human) = TLK2 (human) (UniProt Q86UE8)
YES1 (human) = YES1 (human) (UniProt P07947)

kinase still bound, per cent of control [1]: 82% | kinase still bound, per cent of control [2]: 66% | kinase still bound, per cent of control (ACVRL1 (human)): 99% | kinase still bound, per cent of control (ALK (human)): 44% | kinase still bound, per cent of control (ANKK1 (human)): 25% | kinase still bound, per cent of control (CAMK1G (human)): 68% | kinase still bound, per cent of control (CAMK2A (human)): 44% | kinase still bound, per cent of control (CDK15 (human)): 92% | kinase still bound, per cent of control (CDK17 (human)): 85% | kinase still bound, per cent of control (CDK2 (human)): 92% | kinase still bound, per cent of control (CDKL2 (human)): 100% | kinase still bound, per cent of control (CSNK1A1L (human)): 93% | kinase still bound, per cent of control (EPHA8 (human)): 89% | kinase still bound, per cent of control (ERBB2 (human)): 89% | kinase still bound, per cent of control (FES (human)): 100% | kinase still bound, per cent of control [3]: 83% | kinase still bound, per cent of control (FLT4 (human)): 96% | kinase still bound, per cent of control (HCK (human)): 100% | kinase still bound, per cent of control (IGF1R (human)): 100% | kinase still bound, per cent of control (IKBKE (human)): 100% | kinase still bound, per cent of control (INSRR (human)): 96% | kinase still bound, per cent of control (LTK (human)): 83% | kinase still bound, per cent of control (MET (human)): 96% | kinase still bound, per cent of control (MST4 (human)): 70% | kinase still bound, per cent of control (MUSK (human)): 100% | kinase still bound, per cent of control (MYO3A (human)): 59% | kinase still bound, per cent of control (NLK (human)): 100% | kinase still bound, per cent of control (NUAK1 (human)): 25% | kinase still bound, per cent of control (PAK2 (human)): 71% | kinase still bound, per cent of control (PDPK1 (human)): 93% | kinase still bound, per cent of control (PTK2 (human)): 13% | kinase still bound, per cent of control (ROCK2 (human)): 57% | kinase still bound, per cent of control (ROS1 (human)): 100% | kinase still bound, per cent of control (RPS6KA1 KD1 (human)): 92% | kinase still bound, per cent of control (SGK110 (human)): 55% | kinase still bound, per cent of control (SIK1 (human)): 81% | kinase still bound, per cent of control (SRPK1 (human)): 100% | kinase still bound, per cent of control (STK36 (human)): 100% | kinase still bound, per cent of control (SYK (human)): 100% | kinase still bound, per cent of control (TEC (human)): 91% | kinase still bound, per cent of control (TLK2 (human)): 93% | kinase still bound, per cent of control (YES1 (human)): 87%
Structure (SMILES): COc1cc(N2CCN(C)CC2)ccc1Nc1ncc2c(n1)N(C)c1sccc1C(=O)N2C
kinase still bound, per cent of control (NEK9 (human)): 94%

kinase still bound, per cent of control [1]: 96% | kinase still bound, per cent of control [2]: 97% | kinase still bound, per cent of control (ACVRL1 (human)): 100% | kinase still bound, per cent of control (ALK (human)): 100% | kinase still bound, per cent of control (ANKK1 (human)): 32% | kinase still bound, per cent of control (CAMK1G (human)): 100% | kinase still bound, per cent of control (CAMK2A (human)): 100% | kinase still bound, per cent of control (CDK15 (human)): 100% | kinase still bound, per cent of control (CDK17 (human)): 100% | kinase still bound, per cent of control (CDK2 (human)): 100% | kinase still bound, per cent of control (CDKL2 (human)): 100% | kinase still bound, per cent of control (CSNK1A1L (human)): 100% | kinase still bound, per cent of control (EPHA8 (human)): 100% | kinase still bound, per cent of control (ERBB2 (human)): 100% | kinase still bound, per cent of control (FES (human)): 90% | kinase still bound, per cent of control [3]: 100% | kinase still bound, per cent of control (FLT4 (human)): 100% | kinase still bound, per cent of control (HCK (human)): 100% | kinase still bound, per cent of control (IGF1R (human)): 100% | kinase still bound, per cent of control (IKBKE (human)): 100% | kinase still bound, per cent of control (INSRR (human)): 100% | kinase still bound, per cent of control (LTK (human)): 82% | kinase still bound, per cent of control (MET (human)): 100% | kinase still bound, per cent of control (MST4 (human)): 100% | kinase still bound, per cent of control (MUSK (human)): 100% | kinase still bound, per cent of control (MYO3A (human)): 100% | kinase still bound, per cent of control (NLK (human)): 100% | kinase still bound, per cent of control (NUAK1 (human)): 86% | kinase still bound, per cent of control (PAK2 (human)): 100% | kinase still bound, per cent of control (PDPK1 (human)): 100% | kinase still bound, per cent of control (PTK2 (human)): 100% | kinase still bound, per cent of control (ROCK2 (human)): 100% | kinase still bound, per cent of control (ROS1 (human)): 100% | kinase still bound, per cent of control (RPS6KA1 KD1 (human)): 100% | kinase still bound, per cent of control (SGK110 (human)): 100% | kinase still bound, per cent of control (SIK1 (human)): 100% | kinase still bound, per cent of control (SRPK1 (human)): 100% | kinase still bound, per cent of control (STK36 (human)): 100% | kinase still bound, per cent of control (SYK (human)): 100% | kinase still bound, per cent of control (TEC (human)): 100% | kinase still bound, per cent of control (TLK2 (human)): 100% | kinase still bound, per cent of control (YES1 (human)): 100%
Structure (SMILES): CN1C(=O)c2ccccc2N(C)c2nc(NS(=O)(=O)c3ccc(N)cc3)ncc21
kinase still bound, per cent of control (NEK9 (human)): 100%
